PubChem BioAssay AID2060908 (Molecular Pharmacology Branch, DTP, NCI, 2025)

Tested on: 186277-243-T-J2-PDC complex spheroids, viability
Assay: Anticancer human tumor 186277-243-T-J2-PDC patient-derived colon adenocarcinoma cell line growth inhibition [RAS]
Conditions: for IC50: curve of first compound; for viability, T/C: stronger effect = lower value; active = viability on the fitted dose curve at most 10% of control; inactive = the rest
Method in brief: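 Multi-cell-type spheroids: tumor cells plus HUVEC endothelial cells and mesenchymal stem cells. RAS-pathway inhibitors were combined with targeted agents, each dosed in half-log steps down from clinical Cmax, or from 10 microM when Cmax was unknown.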

[1] = second compound 0.0316 µM, first compound 0.0316 µM
[2] = second compound 0.0316 µM, first compound 0.1 µM
[3] = second compound 0.0316 µM, first compound 0.316 µM
[4] = second compound 0.0316 µM, first compound 1 µM
[5] = second compound 0.1 µM, first compound 0.0316 µM
[6] = second compound 0.1 µM, first compound 0.1 µM
[7] = second compound 0.1 µM, first compound 0.316 µM
[8] = second compound 0.1 µM, first compound 1 µM
[9] = second compound 0.316 µM, first compound 0.0316 µM
[10] = second compound 0.316 µM, first compound 0.1 µM
[11] = second compound 0.316 µM, first compound 0.316 µM
[12] = second compound 0.316 µM, first compound 1 µM
[13] = second compound 1 µM, first compound 0.0316 µM
[14] = second compound 1 µM, first compound 0.1 µM
[15] = second compound 1 µM, first compound 0.316 µM
[16] = second compound 1 µM, first compound 1 µM
[17] = second compound 3.16 µM, first compound 0.0316 µM
[18] = second compound 3.16 µM, first compound 0.1 µM
[19] = second compound 3.16 µM, first compound 0.316 µM
[20] = second compound 3.16 µM, first compound 1 µM
[21] = second compound 10 µM, first compound 0.0316 µM
[22] = second compound 10 µM, first compound 0.1 µM
[23] = second compound 10 µM, first compound 0.316 µM
[24] = second compound 10 µM, first compound 1 µM
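Note: spheroids exposed to compounds for 7 days before viability read.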

C=CC(=O)N1CCN(c2nc(OCC3CCCN3C)nc3c(F)c(-c4nc(N)cc(C)c4C(F)(F)F)c(Cl)cc23)C(C)C1 (stereo unspecified) + C#Cc1c(F)ccc2cc(O)cc(-c3ncc4c(N5CC6CCC(C5)N6)nc(OCC56CCCN5CC(F)C6)nc4c3F)c12
> 1000 nM: IC50 (second compound 0.0316 µM)
active: viability, T/C (second compound 10 µM, first compound 0.00316 µM) 8.29% | viability, T/C (second compound 10 µM, first compound 0.01 µM) 9.21% | viability, T/C [21] 11.5% | viability, T/C [22] 11% | viability, T/C [23] 11.3% | viability, T/C [24] 8.56%
325 nM: IC50 (second compound 0.1 µM)
inactive: viability, T/C (second compound 0.0316 µM, first compound 0.00316 µM) 75.1% | viability, T/C (second compound 0.0316 µM, first compound 0.01 µM) 97.6% | viability, T/C [1] 84.3% | viability, T/C [2] 78.3% | viability, T/C [3] 79.5% | viability, T/C [4] 54.6% | viability, T/C (second compound 0.1 µM, first compound 0.00316 µM) 69.6% | viability, T/C (second compound 0.1 µM, first compound 0.01 µM) 73.7% | viability, T/C [5] 60.4% | viability, T/C [6] 58.4% | viability, T/C [7] 53.1% | viability, T/C [8] 35.8% | viability, T/C (second compound 0.316 µM, first compound 0.00316 µM) 24.2% | viability, T/C (second compound 0.316 µM, first compound 0.01 µM) 35.7% | viability, T/C [9] 37.8% | viability, T/C [10] 25.2% | viability, T/C [11] 33.2% | viability, T/C [12] 24.2% | viability, T/C (second compound 1 µM, first compound 0.00316 µM) 18.1% | viability, T/C (second compound 1 µM, first compound 0.01 µM) 19.1% | viability, T/C [13] 19.1% | viability, T/C [14] 18.6% | viability, T/C [15] 19% | viability, T/C [16] 15.5% | viability, T/C (second compound 3.16 µM, first compound 0.00316 µM) 9.97% | viability, T/C (second compound 3.16 µM, first compound 0.01 µM) 14.1% | viability, T/C [17] 12.5% | viability, T/C [18] 13.3% | viability, T/C [19] 15.5% | viability, T/C [20] 10.9%
< 3.16 nM: IC50 (second compound 0.316 µM) | IC50 (second compound 1 µM) | IC50 (second compound 3.16 µM) | IC50 (second compound 10 µM)

CC(=O)OC12COC1CC(O)C1(C)C(=O)C(O)C3=C(C)C(OC(=O)C(O)C(NC(=O)OC(C)(C)C)c4ccccc4)CC(O)(C(OC(=O)c4ccccc4)C21)C3(C)C (stereo unspecified) + C#Cc1c(F)ccc2cc(O)cc(-c3ncc4c(N5CC6CCC(C5)N6)nc(OCC56CCCN5CC(F)C6)nc4c3F)c12
active: viability, T/C [1] 5.3% | viability, T/C [2] 5.14% | viability, T/C [3] 5.59% | viability, T/C [4] 4.15% | viability, T/C (second compound 0.0316 µM, first compound 3.16 µM) 5.04% | viability, T/C (second compound 0.0316 µM, first compound 10 µM) 4.9% | viability, T/C [5] 6.01% | viability, T/C [6] 5.73% | viability, T/C [7] 4.94% | viability, T/C [8] 4.03% | viability, T/C (second compound 0.1 µM, first compound 3.16 µM) 5.26% | viability, T/C (second compound 0.1 µM, first compound 10 µM) 3.53% | viability, T/C [9] 5.77% | viability, T/C [10] 4.92% | viability, T/C [11] 4.48% | viability, T/C [12] 4.42% | viability, T/C (second compound 0.316 µM, first compound 3.16 µM) 4.75% | viability, T/C (second compound 0.316 µM, first compound 10 µM) 5% | viability, T/C [13] 4.79% | viability, T/C [14] 5.04% | viability, T/C [15] 4.17% | viability, T/C [16] 4.69% | viability, T/C (second compound 1 µM, first compound 3.16 µM) 5.21% | viability, T/C (second compound 1 µM, first compound 10 µM) 4.15% | viability, T/C [17] 3.84% | viability, T/C [18] 4.36% | viability, T/C [19] 4.81% | viability, T/C [20] 3.94% | viability, T/C (second compound 3.16 µM, first compound 3.16 µM) 4.59% | viability, T/C (second compound 3.16 µM, first compound 10 µM) 3.53% | viability, T/C [21] 4.68% | viability, T/C [22] 3.75% | viability, T/C [23] 4.17% | viability, T/C [24] 4.45% | viability, T/C (second compound 10 µM, first compound 3.16 µM) 4.43% | viability, T/C (second compound 10 µM, first compound 10 µM) 3.61%
< 31.6 nM: IC50 (second compound 0.0316 µM) | IC50 (second compound 0.1 µM) | IC50 (second compound 0.316 µM) | IC50 (second compound 1 µM) | IC50 (second compound 3.16 µM) | IC50 (second compound 10 µM)

CCc1c2c(nc3ccc(O)cc13)-c1cc3c(c(=O)n1C2)COC(=O)[C@]3(O)CC + C#Cc1c(F)ccc2cc(O)cc(-c3ncc4c(N5CC6CCC(C5)N6)nc(OCC56CCCN5CC(F)C6)nc4c3F)c12
< 0.949 nM: IC50 (second compound 0.1 µM) | IC50 (second compound 0.316 µM) | IC50 (second compound 1 µM) | IC50 (second compound 3.16 µM) | IC50 (second compound 10 µM)
active: viability, T/C (second compound 0.0316 µM, first compound 0.3 µM) 5.87% | viability, T/C (second compound 0.1 µM, first compound 0.0949 µM) 5.42% | viability, T/C (second compound 0.1 µM, first compound 0.3 µM) 6.04% | viability, T/C (second compound 0.316 µM, first compound 0.03 µM) 7.42% | viability, T/C (second compound 0.316 µM, first compound 0.0949 µM) 5.03% | viability, T/C (second compound 0.316 µM, first compound 0.3 µM) 3.68% | viability, T/C (second compound 1 µM, first compound 0.000949 µM) 7.55% | viability, T/C (second compound 1 µM, first compound 0.003 µM) 8.61% | viability, T/C (second compound 1 µM, first compound 0.00949 µM) 8.45% | viability, T/C (second compound 1 µM, first compound 0.03 µM) 6.92% | viability, T/C (second compound 1 µM, first compound 0.0949 µM) 4.24% | viability, T/C (second compound 1 µM, first compound 0.3 µM) 3.83% | viability, T/C (second compound 3.16 µM, first compound 0.000949 µM) 8.46% | viability, T/C (second compound 3.16 µM, first compound 0.003 µM) 7.85% | viability, T/C (second compound 3.16 µM, first compound 0.00949 µM) 7.31% | viability, T/C (second compound 3.16 µM, first compound 0.03 µM) 5.89% | viability, T/C (second compound 3.16 µM, first compound 0.0949 µM) 4.55% | viability, T/C (second compound 3.16 µM, first compound 0.3 µM) 2.75% | viability, T/C (second compound 10 µM, first compound 0.000949 µM) 6.68% | viability, T/C (second compound 10 µM, first compound 0.003 µM) 6.39% | viability, T/C (second compound 10 µM, first compound 0.00949 µM) 6.05% | viability, T/C (second compound 10 µM, first compound 0.03 µM) 5.42% | viability, T/C (second compound 10 µM, first compound 0.0949 µM) 3.58% | viability, T/C (second compound 10 µM, first compound 0.3 µM) 2.72%
2.64 nM: IC50 (second compound 0.0316 µM)
inactive: viability, T/C (second compound 0.0316 µM, first compound 0.000949 µM) 72.5% | viability, T/C (second compound 0.0316 µM, first compound 0.003 µM) 40.5% | viability, T/C (second compound 0.0316 µM, first compound 0.00949 µM) 36.7% | viability, T/C (second compound 0.0316 µM, first compound 0.03 µM) 20.9% | viability, T/C (second compound 0.0316 µM, first compound 0.0949 µM) 8.73% | viability, T/C (second compound 0.1 µM, first compound 0.000949 µM) 35.5% | viability, T/C (second compound 0.1 µM, first compound 0.003 µM) 21.9% | viability, T/C (second compound 0.1 µM, first compound 0.00949 µM) 16.6% | viability, T/C (second compound 0.1 µM, first compound 0.03 µM) 12.2% | viability, T/C (second compound 0.316 µM, first compound 0.000949 µM) 14.3% | viability, T/C (second compound 0.316 µM, first compound 0.003 µM) 14.1% | viability, T/C (second compound 0.316 µM, first compound 0.00949 µM) 9.89%
